Reference: patent US20010055614A1, “Antidepressant therapy” (priority 1998, published 2001)
Where a name gives a salt, the structure may show the parent alone.

Legend:
[1] = pKa of amitriptyline hydrochloride; assay type: physicochemical
[2] = Solubility and dissolution rate of amitriptyline hydrochloride in artificial gastric and intestinal fluid; assay type: physicochemical
Procedure: Dosage form 10 controls the exit 13 surface area for releasing drug 16 essentially independent of the pH of the drug receiving biological receptor, thereby essentially preventing crystallizing drug 16 in exit 13, or essentially preventing blocking exit 13 with nonreleased drug 16. […] In artificial intestinal fluid at 37° C. the drug dissolution rate in artificial intestinal fluid at pH 7.5 is low compared to the dissolution rate in a lower pH such as gastric fluid having a pH of about 2. […] The dissolution rate is sensitive to pH changes, and when drug 16 is pumped from the dosage form it tends to crystallize at higher pH in orifice exit 13, or to partially block orifice exit 13, which in either instance, slows the drug release rate, and decreases the cumulative amount of drug released from the dosage form. The present invention by providing coated granules of antidepressant tricyclic drug 16, and by providing an orifice in the range of 1 mil to 30 mil (0.0254 mm to 0.760 mm), essentially overcomes the problems discussed above. […] In drawing FIG. 6, the release rate is given on the y-axis and the orifice surface area in mils and in mm^2 is given on the x-axis. The release of drug from the dosage form was measured in artificial intestinal fluid. […] Drawing FIG. 9 depicts the cumulative amount of drug release in mg, over a period of 24 hours for a coated drug through a 10 mil (0.254 mm) exit orifice illustrates about 100% of the drug is delivered free of crystalizing in the orifice. Drawing FIG. 10 depicts the release rate measured in artificial gastric fluid over zero to two hours and then in artificial intestinal fluid over two to twenty-four hours, through a 10 mil (0.254 mm) orifice illustrates about 90% of the drug is delivered under these conditions. […] The antidepressant drug is dose delivered independent of pH as found in the gastrointestinal drug and free from sticking or blocked delivery to a patient.

In the case of CN(C)CCC=C1c2ccccc2CCc2ccccc21 [amitriptyline hydrochloride], the pKa [1] is reported as 9.4, the “solubility (in words)” value ([2]; 7.5 pH, artificial intestinal fluid, compared to artificial gastric fluid at pH 6) is reported as “soluble, but the solubility is less” and the solubility ([2]; artificial gastric fluid, pH 6, simulated gastric fluid) is reported as greater than 600 mg/mL. For the same compound, the “dissolution rate (in words)” value ([2]; artificial intestinal fluid at pH 7.5, 37° C., compared to gastric fluid pH about 2) was “low”.
